The results in this text go back to paper PMC6052247, “Structurally Diverse Polyketides From the Mangrove-Derived Fungus Diaporthe sp. SCSIO 41011 With Their Anti-influenza A Virus Activities” (Frontiers in Chemistry, 2018).

In the experiment the test system is A/Puerto Rico/8/34 H274Y (H1N1). It is filed as cell-based, Influenza A virus.
In general, IC50 refers to the point on the concentration scale where inhibition reaches its midpoint. 5-chloroisorotiorin yielded an IC50 of 2520 ± 210 nM. `CCCCCc1cc(=O)c2c(CC(=O)OC)cc(O)cc2o1` [Compound 14, pestalotiopsone F] came in with an IC50 of 21800 ± 7960 nM. In turn, `CCCCCCCc1cc(=O)c2c(CC(=O)OCC)cc(O)cc2o1` [Compound 15, pestalotiopsone B] yielded an IC50 of 2560 ± 320 nM.
